Peptide text beside a SMILES is read from it. * marks the point of attachment. Palmitoyl = CCCCCCCCCCCCCCCC(=O)*
What was measured:
[1] = biological target: N39 (NHR-derived polypeptide of gp41) (Human immunodeficiency virus type 1 group M subtype B, UniProt P04578); format: binding, HIV-1; settings: 10 μM each, PBS pH 7.2
Description: (§1) The circular dichroism spectrophotometer was Jasco-815 by JASCO Inc., and the assay method was referred to the papers published by the inventors (see the References 18 and 30 listed in the Background Art). […] The N39 and an inhibitor were separately dissolved in a phosphate buffered saline (PBS) to prepare a PBS solution (pH 7.2) of a concentration of 20 μM. The N39 was mixed with an inhibitor at a volume ratio of 1:1 (final concentration of 10 μM for each), the mixed sample was placed at 37° C. for 30 minutes to fully react, and then the helix content and Tm value of the resultant complex were measured by the circular dichroism spectrophotometer. The scan wavelength range of the device was 195-260 nm with a wavelength interval of 1 nm, and the values measured by scanning for three times were averaged. Based on the CD signals, the interaction between the polypeptides and the helix content were determined. Then, the sample for CD signal measurement was transferred to the temperature scanning sample cell, the program of the CD device was set to temperature scanning with a detection wavelength of 220 nm and scanning range of 20-98° C., and the program scan was performed to obtain the curve of the CD signals vs temperature, based on which the Tm value was calculated. Based on the Tm value, the stability of the formed helical structure of the inhibitor and N39 was judged.

[2] = circular dichroism secondary structure analysis of the inhibitors themselves; format: physicochemical; settings: 20 μM and 40 μM in PBS
Description: as §1
For easy analysis, the α-helix content and the Tm value of the inhibitors were measured at concentrations of 10 μM, 20 μM, and 40 μM (PBS solution), respectively.

[3] = tested on: 35 HIV-1 pseudoviruses (subtypes A, B, B', C, G, A/C, A/E, B/C); settings: for IC50: read-out: average IC50 for inhibition of various types of HIV-1 pseudoviruses, average over 35 pseudoviruses; for inhibitory activity against different subtypes of HIV-1 as folds of T-20: relative to T-20, from average IC50
From the text: HIV-1 pseudovirus-mediated cell entry inhibition assay: basic steps included: (1) Preparation of HIV-1 pseudovirus: the 293T cells were co-transfected with a plasmid expressing the envelope protein (Env) of HIV-1 strain NL4-3 (i.e., a recombinant expression plasmid obtained by inserting the gene encoding the envelope protein (ENV) of the D36G mutant of the HIV-1 strain NL4-3 in the Table 2 of the Reference 14 listed in the Background Art into the vector pcDNA3.1(−)) and the HIV-1 backbone plasmid pSG3Δenv (provided by the AIDS Reagent Program of National Institutes of Health (NIH), catalog number: 11051) by using a cell transfection reagent, incubated in a cell incubator of 37° C. and 5% CO2 for 6 hours, and then the medium was changed, and the cells were further incubated for 48 hours. The cell culture supernatant containing pseudovirus particles was pipetted and filtered with a 0.45 μm filter to collect the supernatant, then 20% fetal bovine serum (FBS) was added thereto, the final solution was transferred to a polypropylene tube, and stored at −80° C. for ready for use or directly subjected to virus titration. (2) Titration of HIV-1 pseudovirus: the viruses were diluted by 5 folds in a 96-well plate, and 4 replicate wells with 8 gradients were set to a final volume of 100 microliters. The TZM-b1 cells were trypsinized and counted, and the cells were diluted to 1×10^5 cells/ml with DMEM complete medium; 100 μl of cells dilution (containing 15 μg/ml DEAE-dextran) per well were added and cultured at 37° C. and 5% CO2 for 48 hours. The 96-well plate was then taken from the cell culture incubator. The supernatant was discarded from the wells. To each well, 30 μl of a cell lysate was added, and after 10 minutes, 100 μl of a luciferase detection reagent was added. 100 μl of liquid was pipetted from each well and added to a corresponding 96-well white plate, and the luminescence values were read by a microplate photometer. The virus titer was calculated by the Reed-Muench method. (3) Antiviral activity assay: the test substance was dissolved in DMSO and diluted with a cell culture solution by 3 folds, and placed in a 96-well plate at a final volume of […]. 50 μl of a DMEM medium was used in place of the test substance as a negative control. To each well, 100 μl of TZM-b1 target cells solution (containing 15 μg/ml DEAE-dextran) at a concentration of 1×10^5 cells/ml was added, and then 50 μl (corresponding to 100 TCID50 per well) of the HIV-1 pseudovirus obtained above was added. After incubation at 37° C. and 5% CO2 for 48 hours, the relative light units (RLU) of each well were determined by using a luciferase detection reagent (Promega). Inhibition rate (%) and IC50 value were calculated.
Among them, the A, B and C subtypes were the main viruses causing AIDS epidemic in the world, while B/C and A/E recombinant viruses were the main viruses in China. […] Among the Env expression plasmids used for the preparation of pseudoviral, except that the Env expression plasmids used for preparation of PVO, Du156 and CAP 210.2.00.E8 were obtained from the AIDS Reagent Program of NIH in the United states, other plasmids were preserved by the laboratory of Prof. He Yuxian, Institute of Pathogen Biology, Chinese Academy of Medical Sciences, please see the References 13, 14 and 18 listed in the Background Art and articles of Chong et al. (Chong H, Yao X, Zhang C, Cai L, Cui S, Wang Y, He Y. Biophysical property and broad anti-HIV activity of Albuvirtide, a 3-maleimimidoproprotionic acid-modified peptide fusion inhibitor. PLoS One, 2012; 7 (3): e 32599). The preparation of the pseudovirus and the antiviral assay were the same as those in Example 2.1 of Example 2 (HIV-1 pseudovirus-mediated cell entry inhibition assay).

[4] = tested on: HIV-2 strain ROD (infectious); test: inhibition of HIV-2; format: cell-based; settings: HIV-2 ROD
Description: (§2) Inhibition rate (%) and IC50 value were calculated.
(§3) In order to further reflect the antiviral advantages of the potent lipopeptides of the present invention, their inhibitory activity against HIV-2 and SIV was determined in the example. The methods of antiviral activity assays used were described in the literatures published by the present inventors (see the References 13 and 30 listed in the Background Art). The molecular cloning plasmid pROD of the HIV-2 strain ROD (HIV-2ROD) was kindly provided by Professor Nuno Taveira from the University of Lisbon, Portugal, and the plasmids expressing the SIV strain SIVpbj (SIVPBJ) and SIV239 envelope proteins (pSIVpbj-Env and pSIV239, respectively) were kindly provided by Professor Xu Jianqing from the Fudan University. The preparation of the infectious ROD was the same as that of the infectious JRCSF in the above section 2.1, and the pseudoviruses SIVpbj and SIV239 were prepared by a method same as that described in the above Examples 2 and 3.

[5] = tested on: HIV-1 strain NL4-3 pseudovirus (D36G mutant); format: cell-based
Description: (§4) The supernatant was discarded from the wells. […] Inhibition rate (%) and IC50 value were calculated.

[6] = tested on: NL4-3 pseudovirus carrying T-20 resistance mutation site of NHR; test: inhibition of T-20 resistant strains; format: cell-based, HIV-1; settings: strains with single or double mutations
[7] = tested on: HXB2-mediated cell fusion (HL2/3 effector cells, TZM-b1 target cells); format: cell-based, HIV-1
Description: HIV-1 mediated cell fusion inhibition assay: the effector cells (HL2/3 cells) and target cells (TZM-b1 cells) were provided by the AIDS Reagent Program of National Institutes of Health (NIH) (catalog numbers: 1294 and 8129, respectively). The both cells were adherent cells and were cultured in a DMEM cell culture medium containing ampicillin/streptomycin double antibiotics and 10% fetal bovine serum (FBS). The TZM-b1 was first added to a 96-well cell culture plate (1×10^4 cells/well), and cultured overnight at 37° C. and 5% CO2. The test substance was diluted with the DMEM cell culture medium by 3 folds and mixed with HL2/3 effector cells (3×10^4 cells/well), then added to the TZM-b1 target cells, and further cultured for 6 hours to fully fuse. The activity of luciferase (relative fluorescence units, RLU) was then determined using a luciferase reporter gene kit from Promega company according to the instructions. The inhibition rate of each sample at each concentration was calculated, and the half effective inhibitory concentration (IC50 value) was calculated using GraphPad Prism Software 2.01.

[8] = tested on: SIV pseudoviruses SIVpbj and SIV239; test: inhibition of SIV pseudoviruses; format: cell-based
Description: as §4, §3

HIV-1 strain JRCSF = format: cell-based
Description: as §2

Chain of N39 (NHR-derived polypeptide of gp41) (P04578 528-566): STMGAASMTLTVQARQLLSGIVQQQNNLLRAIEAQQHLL

Row | SMILES | Tm value of the complex with N39 [1] [°C] | helix content of the complex with N39 [1] [%] | secondary structure of the inhibitor itself (in words) [2] | IC50 [3] [nM] | inhibitory activity against different subtypes of HIV-1 as folds of T-20 [3] [folds] | inhibitory activity against HIV-2 (in words) [4] | inhibitory activity as folds of that of T-20 ([5]; NL4-3 pseudovirus entry, relative to T-20) [folds] | inhibitory activity against T-20 resistant strains (in words) [6] | inhibitory activity as folds of that of T-20 ([7]; HXB2-mediated cell fusion, relative to T-20) | inhibitory activity against SIV (in words) [8] | inhibitory activity as folds of that of T-20 (HIV-1 strain JRCSF; JRCSF replication, relative to T-20) [folds] | decrease of inhibitory activity against NL4-3 infection ([5]; compared with template LP-52) | inhibitory activity against HXB2-cell fusion (in words) ([7]; compared with template LP-52) | decrease of inhibitory activity against JRCSF infection (HIV-1 strain JRCSF; compared with template LP-52)
1 | CCCCCCCCCCCCCCCC(=O)NCCCC[C@H](NC(=O)[C@H](CC(=O)O)NC(=O)[C@H](CC(C)C)NC(=O)[C@H](CCC(=O)O)NC(=O)[C@H](CC(C)C)NC(=O)[C@H](CC(C)C)NC(=O)[C@H](CCC(=O)O)NC(=O)[C@H](CCC(N)=O)NC(=O)[C@H](CCC(=O)O)NC(=O)[C@H](CC(N)=O)NC(=O)[C@H](CCCCN)NC(=O)[C@H](CCC(=O)O)NC(=O)[C@H](CCC(N)=O)NC(=O)[C@H](CCC(N)=O)NC(=O)[C@H](CC(N)=O)NC(=O)[C@H](CCC(N)=O)NC(=O)[C@H](CO)NC(=O)[C@H](CCC(=O)O)NC(=O)[C@H](CCC(=O)O)NC(=O)[C@@H](NC(=O)[C@H](CC(C)C)NC(=O)[C@H](CO)NC(=O)[C@H](Cc1c[nH]cn1)NC(=O)[C@@H](NC(=O)[C@H](CC(C)C)NC(=O)[C@H](CO)NC(=O)[C@@H](NC(=O)[C@H](Cc1ccc(O)cc1)NC(C)=O)[C@@H](C)O)[C@@H](C)CC)[C@@H](C)CC)C(N)=O [LP-40] (Ac-YTSLIHSLIEESQNQQEKNEQELLELDK(Palmitoyl)-NH2) | 51.3 | 57.7 | small amount of helical structure | 6.37 | 7 | only slightly improved | ~21 | had been improved | about 59 folds | only slightly improved | ~18 |  |  | 
2 | CCCCCCCCCCCCCCCC(=O)NCCCC[C@H](NC(=O)[C@H](CCCCN)NC(=O)[C@H](CC(C)C)NC(=O)[C@H](CCC(=O)O)NC(=O)[C@H](CCC(=O)O)NC(=O)[C@H](CCC(=O)O)NC(=O)[C@H](CC(N)=O)NC(=O)[C@H](CCCCN)NC(=O)[C@H](CCCCN)NC(=O)[C@H](CCC(N)=O)NC(=O)[C@H](CCC(N)=O)NC(=O)[C@H](CCC(=O)O)NC(=O)[C@H](CCC(=O)O)NC(=O)[C@H](C)NC(=O)[C@H](CCCCN)NC(=O)[C@H](CCCCN)NC(=O)[C@H](CC(C)C)NC(=O)[C@H](CC(C)C)NC(=O)[C@H](CCC(=O)O)NC(=O)[C@H](CCC(=O)O)NC(=O)[C@@H](NC(=O)[C@H](CCCCN)NC(=O)[C@H](CCC(N)=O)NC(=O)[C@H](CCC(=O)O)NC(=O)[C@H](Cc1c[nH]c2ccccc12)NC(C)=O)[C@@H](C)CC)C(N)=O [LP-55] (Ac-WEQKIEELLKKAEEQQKKNEEELKK(Palmitoyl)-NH2) | 63.1 |  |  | 0.034 | 1218 | significantly affected the activity |  | much lower active against T-20 resistant mutant strains than the LP-52 and LP-80 |  | significantly affected the activity |  | about 2 fold | essentially unchanged | about 2 fold
3 | CCCCCCCCCCCCCCCC(=O)NCCCC[C@H](NC(=O)[C@H](CCC(=O)O)NC(=O)[C@H](CC(C)C)NC(=O)[C@H](CCCCN)NC(=O)[C@H](CCCCN)NC(=O)[C@H](CC(C)C)NC(=O)[C@H](CCC(=O)O)NC(=O)[C@H](CCC(=O)O)NC(=O)[C@H](CCC(=O)O)NC(=O)[C@H](CC(N)=O)NC(=O)[C@H](CCCCN)NC(=O)[C@H](CCCCN)NC(=O)[C@H](CCC(N)=O)NC(=O)[C@H](CCC(N)=O)NC(=O)[C@H](CCC(=O)O)NC(=O)[C@H](CCC(=O)O)NC(=O)[C@H](C)NC(=O)[C@H](CCCCN)NC(=O)[C@H](CCCCN)NC(=O)[C@H](CC(C)C)NC(=O)[C@H](CC(C)C)NC(=O)[C@H](CCC(=O)O)NC(=O)[C@H](CCC(=O)O)NC(=O)[C@@H](NC(C)=O)[C@@H](C)CC)C(N)=O [LP-65] (Ac-IEELLKKAEEQQKKNEEELKKLEK(Palmitoyl)-NH2) | 72.1 | 63 |  | 0.052 | 796 | extremely potent inhibitory activity |  | much lower active against T-20 resistant mutant strains than the LP-52 and LP-80 |  | extremely potent inhibitory activity |  |  |  | 
